Consider five compounds from US9686985B2, “Fungicide N-cycloalkyl-N-bicyclicmethylene-carboxamide derivatives” (BAYER INTELLECTUAL PROPERTY GMBH, priority 2012, dated 2017).

For one series, the system named is Alternaria solani. Kind of series: Example C: in vivo preventive test on Alternaria solani (tomato). To be noted: table C2, dose 100 ppm, comparison with WO-2010/086311 compound. As to the method: Example C: In Vivo Preventive Test on Alternaria solani (Tomato) [table] To produce a suitable preparation of active compound, 1 part by weight of active compound is mixed with the stated amounts of solvent and emulsifier, and the concentrate is diluted with water to the desired concentration. To test for preventive activity, young plants are sprayed with the preparation of active compound at the stated rate of application. One day after this treatment, the plants are inoculated with an aqueous spore suspension of Alternaria solani. The plants remain for one day in an incubation cabinet at approximately 22° C. and a relative atmospheric humidity of 100%. Then the plants are placed in an incubation cabinet at approximately 20° C. and a relative atmospheric humidity of 96%.

Another series relates to Uromyces appendiculatus. Kind of series: Example G: in vivo preventive test on Uromyces appendiculatus (bean rust). As to conditions: bean plants. An outline of the steps: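 Bean plants ("Saxa") at the 2-leaf stage, grown at 24° C., sprayed preventively with active ingredient, then inoculated 24 h later with U. appendiculatus spores (150 000 spores per mL). Incubated 24 h at 20° C./100% RH, then 10 days at 20° C./70-80% RH; % efficacy graded 11 days after contamination versus solvent-treated controls.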

In another series the test system is Alternaria brassicae. Kind of series: Example D: in vivo preventive test on Alternaria brassicae (leaf spot on radish). To be noted: table D; 500 ppm; radish plants; grading 6 days after contamination. As to the method:
Example D: In Vivo Preventive Test on Alternaria brassicae (Leaf Spot on Radish) […] Radish plants (“Pernod Clair” variety), sown in starter cups on a 50/50 peat soil pozzolana substrate and grown at 17° C., are treated at the cotyledon stage by spraying with the active ingredient prepared as described above. Plants, used as controls, are treated with the mixture of acetone/tween/DMSO/water not containing the active material. After 24 hours, the plants are contaminated by spraying the cotyledons with an aqueous suspension of Alternaria brassicae spores (50 000 spores per mL). The spores are collected from a 15-day-old culture. The contaminated radish plants are incubated at 20° C. and at 100% relative humidity. Grading (% of efficacy) is carried out 6 days after the contamination, in comparison with the control plants.

In another series the test system is Septoria tritici. In words: Example L: in vivo preventive test on Septoria tritici (wheat). As to conditions: table L; 500 ppm; wheat plants; grading 24 days after contamination. As to the method: Example L: In Vivo Preventive Test on Septoria tritici (Wheat) […] Wheat plants (“Scipion” variety), sown in starter cups on a 50/50 peat soil pozzolana substrate and grown at 22° C., are treated at the 1 leaf stage (10 cm height) by spraying with the active ingredient prepared as described above. Plants, used as controls, are treated with the mixture of acetone/tween/DMSO/water not containing the active material. After 24 hours, the plants are contaminated by spraying the leaves with an aqueous suspension of cryopreserved Septoria tritici spores (500 000 spores per mL). The contaminated wheat plants are incubated for 72 hours at 18° C. and at 100% relative humidity, and then for 21 days at 90% relative humidity. Grading (% of efficacy) is carried out 24 days after the contamination, in comparison with the control plants.

A short description of series [1]: log P by HPLC on reversed-phase column (EEC Directive 79/831 Annex V.A8). To be noted: Table 1; HPLC C18, 40° C., 0.1% aqueous formic acid and acetonitrile gradient. The series is classed as physicochemical. An outline of the steps: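 Column at 40° C; mobile phases 0.1% aqueous formic acid and acetonitrile, linear gradient 10% to 90% acetonitrile. Calibrated with unbranched alkan-2-ones (3 to 16 carbons) of known log P; values from retention times by linear interpolation between two successive alkanones.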

The subject of another series is Sphaerotheca fuliginea. Kind of series: Example B: in vivo preventive test on Sphaerotheca fuliginea (powdery mildew on cucurbits). To be noted: table B; 500 ppm; gherkin plants; grading 12 days after contamination. The protocol: Example B: In Vivo Preventive Test on Sphaerotheca fuliginea (Powdery Mildew on Cucurbits) […] Gherkin plants (“Vert petit de Paris” variety), sown in starter cups on a 50/50 peat soil-pozzolana substrate and grown at 24° C., are treated at the Z11 cotyledon stage by spraying with the active ingredient prepared as described above. Plants, used as controls, are treated with the mixture of acetone/tween/DMSO/water not containing the active material. After 24 hours, the plants are contaminated by spraying the cotyledons with an aqueous suspension of Sphaerotheca fuliginea spores (100 000 spores per mL). The spores are collected from infected plants. The contaminated gherkin plants are incubated at about 20° C. and at 70-80% relative humidity. Grading (% of efficacy) is carried out 12 days after the contamination, in comparison with the control plants.

For the next series, the system named is Pyrenophora teres. Kind of series: Example N: in vivo preventive test on Pyrenophora teres (barley). As to conditions: table N; 500 ppm; barley plants; grading 14 days after contamination. An outline of the steps:
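Barley (cv. Plaisant) at 1-leaf stage was sprayed with compound, then inoculated 24 h later with P. teres spores (12 000/mL). Plants were held 48 h at 20 °C, 100% RH, then 12 days at 20 °C, 70-80% RH; % efficacy versus solvent-treated controls was graded 14 days post-inoculation.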

The test system of another series is Puccinia recondita. Kind of series: Example R: in vivo preventive test on Puccinia recondita (brown rust on wheat). To be noted: table R; 500 ppm; wheat plants; grading 12 days after contamination. As to the method:
Example R: In Vivo Preventive Test on Puccinia recondita (Brown Rust on Wheat) […] Wheat plants (“Scipion” variety), sown in starter cups on a 50/50 peat soil pozzolana substrate and grown at 22° C., are treated at the 1 leaf stage (10 cm height) by spraying with the active ingredient prepared as described above. Plants, used as controls, are treated with the mixture of acetone/tween/DMSO/water not containing the active material. After 24 hours, the plants are contaminated by spraying the leaves with an aqueous suspension of Puccinia recondita spores (100 000 spores per mL). The spores are collected from an infected plant and are suspended in water containing 2.5 mL/L of Tween 80 at 10%. The contaminated wheat plants are incubated for 24 hours at 20° C. and at 100% relative humidity, and then for 10 days at 20° C. and at 70-80% relative humidity. Grading (% of efficacy) is carried out 12 days after the contamination, in comparison with the control plants.

For another series, the system named is Pyricularia oryzae. The format is in vivo. To be noted: table Q; 500 ppm; rice plants; grading 6 days after contamination.
Where [2] appears, read: table G1, 500 ppm, grading 11 days after contamination.

On to `Cc1nn(C)c(F)c1C(=O)N(C1CC1)C(C)C1CCCc2ccccc21` (stereo not drawn) [1.2 from WO-2010/086311, N-cyclopropyl-5-fluoro-1,3-dimethyl-N-[1-(1,2,3,4-tetrahydronaphthalen-1-yl)ethyl]-1H-pyrazole-4-carboxamide, reference compound], for which the Efficacy result is on record as “no protection” in the series with Alternaria solani and 0% with Alternaria solani (listed as I.2 from WO-2010/086311).

Usually logP stands for the decadic logarithm of the partition coefficient of the neutral form, usually between octanol and water. Turning to `Cc1cccc2c1CCC2CN(C(=O)c1c(C(F)F)nn(C)c1F)C1CC1` (stereo not drawn) [I.3], the Efficacy in the series on Uromyces appendiculatus (setting [2]) is 100%; in the series on Uromyces appendiculatus (table G2, dose 100 ppm) it was 88%; with Uromyces appendiculatus (table G2, dose 500 ppm) it was 100%; with Alternaria brassicae it was 97%; in the series with Septoria tritici, 100%; with Sphaerotheca fuliginea, 100%. For the same compound, the Efficacy was found to be 100% with Pyrenophora teres, 94% in the series with Puccinia recondita and 97% in the series with Pyricularia oryzae. Moreover, the logP in [1] is 3.71.

Regarding `Cn1nc(C(F)F)c(C(=O)N(CC2CCc3c(F)cccc32)C2CC2)c1Cl` (stereo not drawn) [I.8], the Efficacy worked out at 71% with Septoria tritici; 100% in the series with Sphaerotheca fuliginea; 86% in the series with Pyrenophora teres; 75% in the series with Puccinia recondita; 83% in the series on Pyricularia oryzae. In series [1], the log partition coefficient (logP) came out at 3.55.

Take `Cn1nc(C(F)F)c(C(=O)N(CC2CCc3cccc(Cl)c32)C2CC2)c1F` (stereo not drawn) [I.14]: the Efficacy in the series on Uromyces appendiculatus (setting [2]) is reported as 100%; in the series on Uromyces appendiculatus (table G2, dose 100 ppm) it was 50%; in the series on Uromyces appendiculatus (table G2, dose 500 ppm), 100%; in the series with Alternaria brassicae, 100%; with Septoria tritici, 97%; in the series with Sphaerotheca fuliginea it was 100%. The Efficacy in the series on Pyrenophora teres was 93%; in the series with Puccinia recondita it was 81%; with Pyricularia oryzae it was 75%. In addition, the log partition coefficient (logP) in [1] was found to be 3.80.

Turning to `Cn1nc(C(F)F)c(C(=O)N(CC2CCc3cccc(Br)c32)C2CC2)c1F` (stereo not drawn) [I.21], the Efficacy with Uromyces appendiculatus (setting [2]) is listed as 98%; in the series with Alternaria brassicae, 100%; in the series on Septoria tritici, 93%; in the series on Sphaerotheca fuliginea, 100%; in the series on Pyrenophora teres, 79%; with Puccinia recondita it was 88%. Besides, the Efficacy in the series with Pyricularia oryzae amounted to 83%. The same compound registered a logP in series [1] of 3.92.
